Values quoted from earlier work, collected in patent US11020355B2, “Method of encapsulating cannabinoids in phospholipid carriers” (NuVessl, Inc., priority 2018, dated 2021).
Where two headings read alike, the source gives them in different places.

What was measured:
[1] = parameters: AUC (0-10.5 hours): unit not given beside the values; details: oromucosal, historic data
[2] = oral administration

**Q.** Which results are given for C=C(C)[C@@H]1CCC(C)=C[C@H]1c1c(O)cc(CCCCC)cc1O [CBD, cannabidiol]?
**A.** C max ([1]; 10 mg CBD): 3.0 microgram per liter (nanogram per mL); C max ([1]; 15 mg CBD): 3.7 microgram per liter (nanogram per mL); AUC (0-10.5 hours) ([1]; 5-15 mg CBD): 4.1-12.6; Tmax ([1]; 5-15 mg CBD): 3.6 to 4.5 h; bioavailability [2]: 6%-15%
